Measured values published in patent US20110071180A1, “SUB-TYPE SELECTIVE AMIDES OF DIAZABICYCLOALKANES” (Targacept, Inc., priority 2008, published 2011).
Where two headings read alike, the source gives them in different places.

How the values were obtained:
rat α4β2 nAChR subtype = target: T1, rat α4β2 nAChR subtype (Rattus norvegicus, UniProt P09483+P12390); experiment: Radioligand binding, [3H]nicotine, rat cortex membranes; settings: [3H]nicotine 5 nM
T1 construct: The cerebral cortex was removed and placed in 20 volumes (weight:volume) of ice-cold preparative buffer; from tissue; host or cells: rat cerebral cortex membranes (female Sprague-Dawley)
Experimental: Preparation of Membranes from Rat Cortex: Rats (Female, Sprague-Dawley), weighing 150-250 g, were maintained on a 12 h light/dark cycle and were allowed free access to water and food supplied by PMI Nutrition International, Inc. Animals were anesthetized with 70% CO2, and then decapitated. Brains were removed and placed on an ice-cold platform. The cerebral cortex was removed and placed in 20 volumes (weight:volume) of ice-cold preparative buffer (137 mM NaCl, 10.7 mM KCl, 5.8 mM KH2PO4, 8 mM Na2HPO4, 20 mM HEPES (free acid), 5 mM iodoacetamide, 1.6 mM EDTA, pH 7.4); PMSF, dissolved in methanol to a final concentration of 100 μM, was added and the suspension was homogenized by Polytron. The homogenate was centrifuged at 18,000×g for 20 min at 4° C. and the resulting pellet was re-suspended in 20 volumes of ice-cold water. After 60 min incubation on ice, a new pellet was collected by centrifugation at 18,000×g for 20 min at 4° C. The final pellet was re-suspended in 10 volumes of buffer and stored at −20° C.
(§1) On the day of the assay, the frozen membranes were thawed and spun at 48,000×g for 20 min. The supernatant was decanted and discarded. The pellet was resuspended in Dulbecco's phosphate buffered saline (PBS, Life Technologies) pH 7.4 and homogenized with the Polytron for 6 seconds. Protein concentrations were determined using a Pierce BCA Protein Assay Kit, with bovine serum albumin as the standard (Pierce Chemical Company, Rockford, Ill.).
(§2) Membrane preparations (approximately 50 μg for human and 200-300 μg protein for rat α4β2) were incubated in PBS (50 μL and 100 μL respectively) in the presence of competitor compound (0.01 nM to 100 μM) and 5 nM [^3H]nicotine for 2-3 hours on ice. Incubation was terminated by rapid filtration on a multi-manifold tissue harvester (Brandel, Gaithersburg, Md.) using GF/B filters presoaked in 0.33% polyethyleneimine (w/v) to reduce non-specific binding. Tissue was rinsed 3 times in PBS, pH 7.4. Scintillation fluid was added to filters containing the washed tissue and allowed to equilibrate. Filters were then counted to determine radioactivity bound to the membranes by liquid scintillation counting (2200CA Tri-Carb LSC, Packard Instruments, 50% efficiency or Wallac Trilux 1450 MicroBeta, 40% efficiency, Perkin Elmer).
(§3) Data were expressed as disintegrations per minute (DPMs). Within each assay, each point had 2-3 replicates. The replicates for each point were averaged and plotted against the log of the drug concentration. IC50, which is the concentration of the compound that produces 50% inhibition of binding, was determined by least squares non-linear regression. Ki values were calculated using the Cheng-Prussof equation (1973): […]

α7 nAChR subtype = target: T2, α7 nAChR subtype (Rattus norvegicus, UniProt Q05941); experiment: Radioligand binding, [3H]MLA, rat hippocampus membranes; settings: for inhibition at 5 µM: read-out: α7 high through-put screening (HTS) result
T2 construct: The hippocampus was removed and placed in 10 volumes (weight:volume) of ice-cold preparative buffer; from tissue; host or cells: rat hippocampus membranes (female Sprague-Dawley)
Experimental: Rats (female, Sprague-Dawley), weighing 150-250 g, were maintained on a 12 h light/dark cycle and were allowed free access to water and food supplied by PMI Nutrition International, Inc. Animals were anesthetized with 70% CO2, then decapitated. Brains were removed and placed on an ice-cold platform. The hippocampus was removed and placed in 10 volumes (weight:volume) of ice-cold preparative buffer (137 mM NaCl, 10.7 mM KCl, 5.8 mM KH2PO4, 8 mM Na2HPO4, 20 mM HEPES (free acid), 5 mM iodoacetamide, 1.6 mM EDTA, pH 7.4); PMSF, dissolved in methanol to a final concentration of 100 μM, was added and the tissue suspension was homogenized by Polytron. The homogenate was centrifuged at 18,000×g for 20 min at 4° C. and the resulting pellet was re-suspended in 10 volumes of ice-cold water. After 60 min incubation on ice, a new pellet was collected by centrifugation at 18,000×g for 20 min at 4° C. The final pellet was re-suspended in 10 volumes of buffer and stored at −20° C. On the day of the assay, tissue was thawed, centrifuged at 18,000×g for 20 min, and then re-suspended in ice-cold PBS (Dulbecco's Phosphate Buffered Saline, 138 mM NaCl, 2.67 mM KCl, 1.47 mM KH2PO4, 8.1 mM Na2HPO4, 0.9 mM CaCl2, 0.5 mM MgCl2, Invitrogen/Gibco, pH 7.4) to a final concentration of approximately 2 mg protein/mL. Protein was determined by the method of Lowry et al., J. Biol. Chem. 193: 265 (1951), using bovine serum albumin as the standard.
The binding of [^3H]MLA was measured using a modification of the methods of Davies et al., Neuropharmacol. 38: 679 (1999). [^3H]MLA (Specific Activity=25-35 Ci/mmol) was obtained from Tocris. The binding of [^3H]MLA was determined using a 2 h incubation at 21° C. Incubations were conducted in 48-well micro-titre plates and contained about 200 μg of protein per well in a final incubation volume of 300 μL. The incubation buffer was PBS and the final concentration of [^3H]MLA was 5 nM. The binding reaction was terminated by filtration of the protein containing bound ligand onto glass fiber filters (GF/B, Brandel) using a Brandel Tissue Harvester at room temperature. Filters were soaked in de-ionized water containing 0.33% polyethyleneimine to reduce non-specific binding. Each filter was washed with PBS (3×1 mL) at room temperature. Non-specific binding was determined by inclusion of 50 μM non-radioactive MLA in selected wells.
The inhibition of [^3H]MLA binding by test compounds was determined by including seven different concentrations of the test compound in selected wells. Each concentration was replicated in triplicate. IC50 values were estimated as the concentration of compound that inhibited 50 percent of specific [^3H]MLA binding. Inhibition constants (Ki values), reported in nM, were calculated from the IC50 values using the method of Cheng et al., Biochem. Pharmacol. 22: 3099-3108 (1973).

human α4β2 nAChR subtype = target: T3, human α4β2 nAChR subtype (Homo sapiens, UniProt P17787+P43681); experiment: Radioligand binding, [3H]nicotine, membranes from SH-EP1/human α4β2 clonal cells; settings: [3H]nicotine 5 nM, SH-EP1/human α4β2 cell membranes
T3 construct: expressed in transfected cells; host or cells: SH-EP1 clonal cells expressing human α4β2
Experimental: Preparation of membranes from SH-EP1/human α4β2 clonal cells: Cell pellets from 40 150 mm culture dishes were pooled, and homogenized by Polytron (Kinematica GmbH, Switzerland) in 20 milliliters of ice-cold preparative buffer. The homogenate was centrifuged at 48,000 g for 20 minutes at 4° C. The resulting pellet was re-suspended in 20 mL of ice-cold preparative buffer and stored at −20° C.
as §1, §2, §3

[1] = [3H]MLA 5 nM, rat hippocampus membranes, read-out: α7 Ki

T3 sequence (P43681 29-627 limits assumed): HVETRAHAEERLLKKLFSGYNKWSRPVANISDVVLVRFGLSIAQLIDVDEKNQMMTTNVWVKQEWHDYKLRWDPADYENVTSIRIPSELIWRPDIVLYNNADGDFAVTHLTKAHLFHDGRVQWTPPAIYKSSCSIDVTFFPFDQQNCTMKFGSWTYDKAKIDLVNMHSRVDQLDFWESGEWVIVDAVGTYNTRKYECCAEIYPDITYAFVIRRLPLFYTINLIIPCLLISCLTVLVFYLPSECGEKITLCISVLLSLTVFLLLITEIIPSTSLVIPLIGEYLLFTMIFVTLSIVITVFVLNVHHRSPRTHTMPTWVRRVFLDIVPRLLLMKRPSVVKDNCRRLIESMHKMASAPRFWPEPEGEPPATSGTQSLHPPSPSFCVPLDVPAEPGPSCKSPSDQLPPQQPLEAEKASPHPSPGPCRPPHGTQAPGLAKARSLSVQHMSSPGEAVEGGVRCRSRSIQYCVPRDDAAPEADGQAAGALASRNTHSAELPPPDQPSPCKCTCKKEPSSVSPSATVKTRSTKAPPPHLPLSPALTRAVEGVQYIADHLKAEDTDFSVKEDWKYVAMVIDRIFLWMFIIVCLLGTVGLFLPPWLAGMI
T3 sequence (P17787 26-502): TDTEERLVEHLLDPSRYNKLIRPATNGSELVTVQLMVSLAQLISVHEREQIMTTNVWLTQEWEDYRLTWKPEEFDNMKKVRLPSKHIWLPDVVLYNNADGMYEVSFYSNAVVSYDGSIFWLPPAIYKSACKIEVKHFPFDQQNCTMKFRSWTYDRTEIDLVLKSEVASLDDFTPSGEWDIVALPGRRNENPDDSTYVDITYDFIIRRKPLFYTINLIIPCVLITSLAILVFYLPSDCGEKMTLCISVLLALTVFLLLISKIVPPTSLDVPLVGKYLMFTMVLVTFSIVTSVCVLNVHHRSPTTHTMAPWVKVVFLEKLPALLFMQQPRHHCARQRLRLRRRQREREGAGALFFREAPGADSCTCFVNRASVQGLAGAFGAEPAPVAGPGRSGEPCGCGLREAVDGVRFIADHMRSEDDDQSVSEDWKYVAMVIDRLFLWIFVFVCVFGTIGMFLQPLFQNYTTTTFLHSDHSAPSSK
T1 sequence (P09483 31-630): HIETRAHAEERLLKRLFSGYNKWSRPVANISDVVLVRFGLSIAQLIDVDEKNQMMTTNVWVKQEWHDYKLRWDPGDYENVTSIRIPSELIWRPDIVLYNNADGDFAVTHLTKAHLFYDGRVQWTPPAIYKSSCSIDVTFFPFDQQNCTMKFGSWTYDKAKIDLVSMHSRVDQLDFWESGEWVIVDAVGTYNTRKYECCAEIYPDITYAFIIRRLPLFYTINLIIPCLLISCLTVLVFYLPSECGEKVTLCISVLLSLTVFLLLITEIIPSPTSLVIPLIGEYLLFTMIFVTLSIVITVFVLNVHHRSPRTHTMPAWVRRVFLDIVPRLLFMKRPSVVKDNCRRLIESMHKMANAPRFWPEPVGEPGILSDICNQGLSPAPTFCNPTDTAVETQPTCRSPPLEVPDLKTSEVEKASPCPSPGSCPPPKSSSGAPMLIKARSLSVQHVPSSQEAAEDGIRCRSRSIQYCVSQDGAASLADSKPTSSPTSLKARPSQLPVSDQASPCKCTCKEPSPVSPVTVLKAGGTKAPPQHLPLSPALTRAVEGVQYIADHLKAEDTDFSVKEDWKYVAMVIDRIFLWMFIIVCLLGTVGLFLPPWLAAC
T1 sequence (P12390 25-500): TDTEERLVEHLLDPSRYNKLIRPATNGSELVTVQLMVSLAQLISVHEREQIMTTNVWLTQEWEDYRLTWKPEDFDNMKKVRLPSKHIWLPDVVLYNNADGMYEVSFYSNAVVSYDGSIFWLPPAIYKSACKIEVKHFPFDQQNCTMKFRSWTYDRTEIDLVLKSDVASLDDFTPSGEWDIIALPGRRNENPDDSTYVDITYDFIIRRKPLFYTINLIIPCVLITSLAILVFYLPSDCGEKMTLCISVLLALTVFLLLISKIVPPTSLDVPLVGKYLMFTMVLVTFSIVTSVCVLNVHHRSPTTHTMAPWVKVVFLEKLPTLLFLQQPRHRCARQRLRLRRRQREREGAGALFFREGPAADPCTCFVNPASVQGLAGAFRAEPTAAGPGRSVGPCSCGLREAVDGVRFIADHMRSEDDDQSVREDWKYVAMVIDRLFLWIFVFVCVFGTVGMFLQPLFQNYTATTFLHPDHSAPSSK
T2 sequence (Q05941 23-502): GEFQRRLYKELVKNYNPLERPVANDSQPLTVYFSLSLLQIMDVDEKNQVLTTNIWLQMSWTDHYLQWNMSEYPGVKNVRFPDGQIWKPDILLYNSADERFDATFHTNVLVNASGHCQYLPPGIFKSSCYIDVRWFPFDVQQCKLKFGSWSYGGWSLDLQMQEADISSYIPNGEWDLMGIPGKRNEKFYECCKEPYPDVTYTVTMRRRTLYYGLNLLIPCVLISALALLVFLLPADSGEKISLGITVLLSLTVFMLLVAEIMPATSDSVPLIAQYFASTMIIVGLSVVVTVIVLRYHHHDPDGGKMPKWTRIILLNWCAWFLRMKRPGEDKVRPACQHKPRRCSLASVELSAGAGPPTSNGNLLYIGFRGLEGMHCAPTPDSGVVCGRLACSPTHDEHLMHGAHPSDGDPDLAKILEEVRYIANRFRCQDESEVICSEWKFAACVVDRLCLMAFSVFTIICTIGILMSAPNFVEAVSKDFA

Row | SMILES | Ki (rat α4β2 nAChR subtype) | inhibition at 5 µM (α7 nAChR subtype) | Ki (human α4β2 nAChR subtype) | Ki (α7 nAChR subtype; [1]) | Ki (α7 nAChR subtype; α7 Ki)
1 | O=C(C1CC2CCC1C2)N1CC2CNCC2C1 (stereo not drawn) [Example 10-42] | 139 nM | < 50% | 64.6 nM |  | 
2 | O=C(C1CC2C=CC1C2)N1CC2CNCC2C1 (stereo not drawn) [Example 10-43] | 34 nM | < 50% | 15.8 nM |  | 
3 | O=C([C@@H]1CC2C=CC1C2)N1CC2CNCC2C1 (stereo partly drawn) [Example 10-44] | 9.3 nM | < 50% | 3.4 nM |  | 
4 | O=C(C1C2CCCCC21)N1CC2CNCC2C1 (stereo not drawn) [Example 10-45] | 26 nM |  | 8.6 nM | 508 nM | 
5 | O=C(C1C[C@H]2C=C[C@@H]1CC2)N1CC2CNCC2C1 (stereo partly drawn) [Example 10-46] | 236 nM | < 50% | 44.5 nM |  | 
6 | O=C1CCCC2=C1CC(C(=O)N1CC3CNCC3C1)CC2 (stereo not drawn) [Example 10-47] | 369 nM | < 50% | 419 nM |  | 
7 | O=C(C1CC=CCC1c1cccnc1)N1CC2CNCC2C1 (stereo not drawn) [Example 10-48] | 999 nM | < 50% | 345 nM |  | 
8 | O=C(C1CC=CCC1)N1CC2CNCC2C1 (stereo not drawn) [Example 10-49] | 236 nM | < 50% | 133 nM |  | 
9 | C[C@@H]1C(C(=O)N2CC3CNCC3C2)[C@@H]1C (stereo partly drawn) [Example 10-51] | 17.6 nM |  | 44.6 nM | 4790 nM | 
10 | CC1C(C)C1C(=O)N1CC2CNCC2C1 (stereo not drawn) [Example 10-52] | 133 nM | < 50% | 12.2 nM |  | 
11 | COC1CC(C(=O)N2CC3CNCC3C2)C1 (stereo not drawn) [Example 10-53] | 83.7 nM | < 50% | 147 nM |  | 
12 | O=C(C1CC(F)(F)C1)N1CC2CNCC2C1 (stereo not drawn) [Example 10-54] | 20.3 nM | < 50% | 5.7 nM |  | 
13 | CC(=O)N1CC2CNCC(C2)C1 [Example 10-55] | 18.7 nM |  | 20.2 nM | 3280 nM | 
14 | O=C(C1CC1)N1CC2CNCC(C2)C1 [Example 10-56] | 2.8 nM |  | 0.4 nM | 95.7 nM | 
15 | CC(C)(C)C(=O)N1CC2CNCC(C2)C1 [Example 10-57] | 112 nM | < 50% | 126 nM |  | 
16 | O=C(C1=CCCC1)N1CC2CNCC(C2)C1 [Example 10-58] | 177 nM | < 50% | 468 nM |  | 
17 | O=C(C(F)F)N1CC2CNCC(C2)C1 [Example 10-59] | 1.7 nM |  | 24.6 nM | 295 nM | 
18 | CC(C)=CC(=O)N1CC2CNCC(C2)C1 [Example 10-60] | 25.9 nM | < 50% | 13.8 nM |  | 
19 | COCC(=O)N1CC2CNCC(C2)C1 [Example 10-61] | 50 nM |  | 38.8 nM | 1470 nM | 

Row | SMILES | Ki (rat α4β2 nAChR subtype) | inhibition at 5 µM (α7 nAChR subtype) | Ki (human α4β2 nAChR subtype) | Ki (α7 nAChR subtype; [1]) | Ki (α7 nAChR subtype; α7 Ki)
20 | COCCC(=O)N1CC2CNCC(C2)C1 [Example 10-62] | 175 nM | < 50% | 127 nM |  | 
21 | CCC(=O)N1CC2CNCC(C2)C1 [Example 10-63] | 12.1 nM |  | 10.4 nM | 795 nM | 
22 | C/C=C/CC(=O)N1CC2CNCC(C2)C1 [Example 10-66] | 30.1 nM | < 50% | 16.7 nM |  | 
23 | CCCC(=O)N1CC2CNCC(C2)C1 [Example 10-67] | 8.1 nM |  | 2.9 nM | 230 nM | 
24 | O=C(C1CC1(F)F)N1CC2CNCC(C2)C1 (stereo not drawn) [Example 10-68] | 1.2 nM |  | 1.1 nM | 142 nM | 
25 | CC1(C)CC1C(=O)N1CC2CNCC(C2)C1 (stereo not drawn) [Example 10-69] | 1.5 nM |  | 1 nM | 377 nM | 
26 | CC1(C(=O)N2CC3CNCC(C3)C2)CC1 [Example 10-70] | 874 nM | < 50% | 214 nM |  | 
27 | CC1CC1C(=O)N1CC2CNCC(C2)C1 (stereo not drawn) [Example 10-71] | 1.4 nM |  | 1 nM | 78.7 nM | 
28 | O=C(N1CC2CNCC(C2)C1)C1(O)CC1 [Example 10-72] | 75.9 nM | < 50% | 225 nM |  | 
29 | CC1(C)C(C(=O)N2CC3CNCC(C3)C2)C1(C)C [Example 10-73] | 119 nM | < 50% | 28.2 nM |  | 
30 | N#CC1(C(=O)N2CC3CNCC(C3)C2)CC1 [Example 10-74] | 4840 nM | < 50% | 1340 nM |  | 
31 | O=C(C1CCC1)N1CC2CNCC(C2)C1 [Example 10-75] | 1.6 nM |  | 1.4 nM | 70 nM | 
32 | O=C(C1CC12CCC2)N1CC2CNCC(C2)C1 (stereo not drawn) [Example 10-76] | 1.6 nM |  | 1.1 nM | 680 nM | 
33 | O=C(C1CC=CC1)N1CC2CNCC(C2)C1 [Example 10-77] | 25.6 nM |  | 12.5 nM | 54 nM | 
34 | O=C([C@H]1C[C@H]1F)N1CC2CNCC(C2)C1 [Example 10-78] | 2.9 nM |  | 1.7 nM |  | 397 nM
35 | O=C([C@H]1C[C@@H]1F)N1CC2CNCC(C2)C1 [Example 10-79] | 4.1 nM |  | 2 nM |  | 961 nM
36 | O=C(CCF)N1CC2CNCC(C2)C1 [Example 10-80] | 13.8 nM | < 50% | 9.5 nM |  | 
37 | CC(C)C(=O)N1CC2CNCC(C2)C1 [Example 10-81] | 102 nM |  | 44.4 nM | 645 nM | 
38 | O=C(C1CC(F)C1)N1CC2CNCC(C2)C1 (stereo not drawn) [Example 10-82] | 1.4 nM |  | 2.9 nM | 1040 nM | 
